From patent publication US20230190616A1, “COMPOUNDS USEFUL FOR THE TREATMENT AND/OR CARE OF THE SKIN, HAIR, NAILS AND/OR MUCOUS MEMBRANES” (LUBRIZOL ADVANCED MATERIALS, INC., priority 2018, published 2023)

Assays:
Type in all cases: cell-based
[1] = system: Musclebind like protein 1 (MBNL1) in human skeletal muscle cells (hSkMc); test: Quantification of Musclebind like protein 1 in human skeletal muscle cells by TR-FRET; details: for % MBNL1 vs basal level / MBNL1 levels compared to the basal control and to Argireline (in words): 0.5 mg/ml; for % MBNL1 vs basal level: 48 hours
Procedure: In vitro quantification of Musclebind like protein 1 in human skeletal muscle cells by Time resolved fluorescence resonance energy transfer.
MBNL1 induction by the peptides of the invention is evaluated by a Time resolved fluorescence resonance energy transfer (TR-FRET) assay. The aim of this study is to investigate the capacity of peptide candidates to increase MBNL-1 in human skeletal muscle cells (hSkMc).
hSkMc (Innoprot) are seeded in 12-well plates at a density of 1.5×10^4 cells/well in Skeletal Muscle Cell Growth Medium (Promocell). After 72 hours incubation, medium is removed and replaced with Skeletal Muscle Cell Differentiation Medium (Promocell). 48 hours after beginning cell differentiation, fresh differentiation medium with 0.5 mg/ml of test items is added. Treatment is continued for 48 hours and non-treated cells are used as basal control. After 48 hours of treatment, cell medium is removed and cell lysis buffer is added to wells. Immediately, plates are kept at -80° C. in order to improve protein extraction during the defrosting process. After 72 hours, cells are lysed by shaking the plates in an orbital rotor at room temperature for 45 minutes. Next, cell lysates are collected and assayed to quantify the level of MBNL-1 protein and total protein concentration.
MBNL-1 protein levels measurement is performed with Human MBNL1 Assay Kit (Cisbio) according to the manufacturer’s protocol. Briefly, the kit is used to perform a TR-FRET for MBNL1 quantification. The protein is detected with the antibodies provided in the kit and quantified by a fluorescence measurement. The quantification is carried out by using a microplate reader (ClarioStar™™™, BMG) set to 665 nm and 620 nm.
Total protein concentration of cell lysate is determined by using Pierce BCA Protein Assay Kit (Thermo Scientific) according to manufacturer’s protocol. In brief, after adding Working Reagent to the samples and the standards, the samples are incubated. Afterwards, color change is measured with an absorbance microplate reader (Clariostar™, BMG) at 562 nm. The total protein amount is used to normalize the level of MBNL1 protein concentration obtained by the TR-FRET test in the samples.

[2] = system: collagen type I in primary human dermal fibroblasts (HDFn); test: Type I collagen synthesis on human dermal fibroblasts by ELISA; details: 0.5 µg/ml; for % Collagen induction: 48 hours
Description: In vitro study of type I collagen synthesis on human dermal fibroblasts by Enzyme-Linked Immunosorbent Assay.
Collagen type I is the principal collagen of skin. This molecule, which is mainly produced by fibroblasts, is responsible for the strength and resiliency of this tissue. For this reason, in vitro quantification of collagen induction by cosmetic products on human dermal fibroblasts provides information about their potential anti-aging effects on the skin. Collagen induction by the peptides of the invention is evaluated with an Enzyme-Linked Immunosorbent Assay (ELISA). The aim of this study is to investigate the ability of a product to induce collagen type I synthesis in primary human dermal fibroblasts isolated from neonatal skin (HDFn).
HDFn (Cascade) are seeded at a density of 5×10^4 in 48-well plates. After 24-hour incubation, fresh medium with scalar dilutions of the test items at 0.5 µg/ml are added. Non-treated cells are used as basal control. The cells are treated for 48 hours. Then, the medium of the wells is collected and transferred into a 96-well plate. A standard calibration curve prepared with calf skin type I collagen (Sigma) is transferred into the plate as well. The plate is left overnight in order to coat type I collagen into its surface. After that, collagen I is detected with an anti-collagen type I antibody (Sigma). The primary antibody is then recognized by a secondary antibody IgG-HRP (molecular probes). 3,3,5,5-tetramethylbenzidine liquid substrate (TMB, Sigma) is added to measure the amount of secondary antibody attached. The color produced by this reaction is measured in a microtiter plate reader (Clariostar™, BMG) and type I collagen concentration is determined using a linear regression of the standard curve.

[3] = system: human neuroblastoma cell line (SH-SY5Y); test: Inhibition of noradrenaline (NA) release from human neuroblastoma cells, ELISA
Description: Inhibition of noradrenaline release from human neuroblastoma cells.
Release of neurotransmitters by exocytosis in neuromuscular junctions from peripheral neurons to skeletal muscle allows muscle contraction. Face muscles are subject to said contraction and facial muscle contraction is more frequent around eyes, mouth and forehead than elsewhere in the face. With age, continuous release of neurotransmitters into neuromuscular junctions and decrease of elasticity contribute to the increase of facial wrinkles and permanent expression lines. Compounds able to block or decrease exocytosis on neuromuscular junction sites are thus good candidates for the cosmetic treatment of unaesthetic wrinkles. In vitro induction of the neurotransmitter Noradrenaline (NA) release in a human neuroblastoma cell line (SH-SY5Y) is considered a direct and reliable method for exocytosis measurement. The aim of this study is to evaluate the efficacy of the peptides of the invention on the inhibition of neuronal exocytosis by means of measuring the levels of NA release in SH-SY5Y cells by Enzyme-linked Immunosorbent Assay (ELISA).
SH-SY5Y (ECACC) cells are seeded in 12-well plates at a density of 1×10^6 cells/well. After a 6-day culture, medium is removed from wells and cells are treated for 60 minutes with the peptides of the invention dissolved in Hank’s Balanced Salt Solution (HBSS, Life Technologies) at 1 and 2.5 mg/ml. Cells treated with HBSS alone are used as a basal control. To mobilize NA vesicles, supernatants are removed and 100 nM Tetradecanoylphorbol-13-acetate (TPA, Sigma) is dissolved in the presence of test items in HBSS or dissolved in HBSS alone in the case of the basal control. After this, solutions with TPA are removed and NA release is induced by the addition of 10 µM lonomycin (Epica) with 100 nM TPA dissolved in the presence of test items in HBSS or dissolved in HBSS alone in the case of the basal control. Afterwards, the medium in the wells, containing released NA, is collected and centrifuged. Supernatants obtained are used for quantification of NA by ELISA with noradrenalin ELISA kit (IBL International) following manufacturer’s instructions. In brief, direct sandwich ELISA is performed with a plate pre-coated with an anti-NA antibody. The color obtained after substrate addition is directly proportional to the amount of NA present in each condition tested. Absorbance is read in a microplate absorbance reader (Clariostar™, BMG) at 405 nm. The percentage of NA release for each condition is calculated respect to basal control.

[4] = system: Musclebind like protein 1 (MBNL1) in human skeletal muscle cells (hSkMc); test: Quantification of Musclebind like protein 1 in human skeletal muscle cells by TR-FRET; details: 1 mg/ml; 48 hours
[5] = hSkMc, normalized to total protein
[6] = HDFn, versus non-treated cells, mean of 5 assays
[7] = 1 mg/ml, SH-SY5Y, respect to basal control, mean of 3 assays
[8] = 2.5 mg/ml, SH-SY5Y, respect to basal control, mean of 3 assays

| Substance | % MBNL1 vs basal level [1, 5] | MBNL1 levels compared to the basal control and to Argireline (in words) ([1]; hSkMc) | further results |
| --- | --- | --- | --- |
| Ac-L-Arg-L-Lys-L-Gln-D-Met-L-Glu-L-Glu-NH2 [PEP-35] | 144.3% | increase MBNL1 levels |  |
| Ac-L-Arg-L-Arg-D-Gln-D-Met-L-Glu-L-Glu-NH2 [PEP-24] | 120.9% | increase MBNL1 levels | % Collagen induction [2, 6]: 104.7%; % Released NA [3, 7]: 65.8%; % Released NA [3, 8]: 52.3% |
| Ac-L-Ala-L-Arg-L-Arg-L-Gln-D-Met-L-Glu-L-Glu-L-Ala-NH2 [PEP-42] | 144.4% | increase MBNL1 levels |  |
| Ac-L-Arg-L-Arg-L-Gln-D-Met-L-Glu-L-Glu-OH [PEP-26] | 109.6% | increase MBNL1 levels |  |
| Ac-L-Arg-L-Arg-L-Gln-D-Met-L-Asp-L-Glu-NH2 [PEP-30] | 160.0% | increase MBNL1 levels |  |
| Ac-L-Lys-L-Arg-L-Gln-D-Met-L-Glu-L-Glu-NH2 [PEP-36] | 117.6% | increase MBNL1 levels |  |
| Ac-L-Arg-L-Arg-L-Gln-L-Met-L-Glu-L-Glu-NH2 [PEP-21] | 91.9% |  | % Collagen induction [2, 6]: 119.3%; Efficacy in increasing collagen type I compared with Argireline (in words) ([2]; HDFn): even higher; % Released NA [3, 7]: 78.9%; % Released NA [3, 8]: 43.8% |
| H-L-Arg-L-Arg-L-Gln-D-Met-L-Glu-L-Glu-NH2 [PEP-27] | 144.2% | increase MBNL1 levels |  |
| Ac-L-Arg-L-Arg-L-Asp-D-Met-L-Glu-L-Glu-NH2 [PEP-41] | 151.3% | increase MBNL1 levels |  |
| ARGIRELINE [Ac—Glu—Glu—Met—Gln—Arg—Arg, reference compound] |  |  | % Collagen induction [2]: 109.8%; Effect on MBNL1 (in words) [1]: no effect; % MBNL1 vs basal level [1]: 96.6%; % Released NA ([3]; 1 mg/ml): 79.6%; % Released NA ([3]; 2.5 mg/ml): 63.5%; % MBNL1 vs basal level [4]: 86.9% |
| Ac-L-Arg-L-Arg-L-Gln-D-Met-L-Glu-NH2 [PEP-44] | 137.8% | increase MBNL1 levels |  |
| Ac-L-Arg-L-Gln-D-Met-L-Glu-L-Glu-NH2 [PEP-43] | 112.4% | increase MBNL1 levels |  |
| Ac-L-Arg-L-Arg-L-Gln-D-Met-L-Glu-L-Gln-NH2 [PEP-31] | 161.3% | increase MBNL1 levels |  |
| Ac-L-Arg-L-Arg-L-Gln-D-Leu-L-Glu-L-Glu-NH2 [PEP-37] | 140.3% | increase MBNL1 levels |  |
